What was measured:
BTK = molecular target: T1, BTK (Homo sapiens, UniProt Q06187); experiment: Cell Degradation: BTK degradation in TMD-8 cells, HTRF assay; assay type: cell-based; details: 6 h treatment, IC50 (DC50) of BTK degradation
T1 construct: High control=Cell group with added DMSO and without compound, indicating microplate readings without BTK degradation; endogenous in cells; host or cells: TMD-8 cells
Summary of the method: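 TMD-8 cells treated 6 h with 8-dose 6-fold dilutions in 0.2% DMSO, then lysed and BTK quantified by HTRF (665/620 nm). Degradation % normalised to high/low controls; DC50 from four-parameter fit, Dmax as maximal degradation.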

HEK-293 cells = experiment: HEK-293 Cytotoxicity Assay (CellTiter-Glo); assay type: cell-based; details: Homo sapiens, HEK293, 72 h incubation, CellTiter-Glo luminescence
Summary of the method: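 HEK-293 cells treated 72 h with 8 concentrations (4-fold dilutions, 0.2% DMSO final). Viability read by CellTiter-Glo luminescence; IC50 from four-parameter logistic fit of % inhibition.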

T1 sequence (Q06187 whole entry): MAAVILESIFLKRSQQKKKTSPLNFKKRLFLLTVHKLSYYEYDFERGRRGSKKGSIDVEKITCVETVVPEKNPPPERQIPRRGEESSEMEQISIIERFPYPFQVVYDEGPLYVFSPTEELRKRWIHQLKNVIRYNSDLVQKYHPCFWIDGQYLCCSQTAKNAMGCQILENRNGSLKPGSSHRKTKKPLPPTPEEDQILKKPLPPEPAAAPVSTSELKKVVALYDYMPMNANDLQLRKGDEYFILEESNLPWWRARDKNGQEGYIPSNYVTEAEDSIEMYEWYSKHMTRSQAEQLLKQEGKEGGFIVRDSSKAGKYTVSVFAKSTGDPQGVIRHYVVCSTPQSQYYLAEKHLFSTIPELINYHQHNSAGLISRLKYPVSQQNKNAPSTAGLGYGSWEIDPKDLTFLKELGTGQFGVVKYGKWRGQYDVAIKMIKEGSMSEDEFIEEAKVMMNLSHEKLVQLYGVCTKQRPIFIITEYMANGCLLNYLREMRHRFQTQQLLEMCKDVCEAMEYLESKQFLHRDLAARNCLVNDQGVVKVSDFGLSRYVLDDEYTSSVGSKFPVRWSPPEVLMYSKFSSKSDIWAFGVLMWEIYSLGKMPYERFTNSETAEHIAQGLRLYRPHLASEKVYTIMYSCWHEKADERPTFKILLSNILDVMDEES

| DC50 (BTK) [µM] | Compound | IC50 (HEK-293 cells) [µM] |
| --- | --- | --- |
| > 2 | Cc1cc(-c2ncnc3[nH]c(-c4ccc(N5CCN([C@H]6C[C@@H](c7ccc(N[C@@H]8CCC(=O)NC8=O)cc7)C6)CC5)nc4)cc23)ccc1[C@@H](C)NC(=O)c1nc(C(C)(C)C)no1 [Example 189, 3-(tert-butyl)-N-((R)-1-(4-(6-(6-(4-((1S,3s)-3-(4-(((R)-2,6-dioxopiperidin-3-yl)amino)phenyl)cyclobutyl)piperazin-1-yl)pyridin-3-yl)-7H-pyrrolo[2,3-d]pyrimidin-4-yl)-2-methylphenyl)ethyl)-1,2,4-oxadiazole-5-carboxamide] | > 10 |
| 0.00028 | Cc1cc(-c2ncnc3[nH]c(-c4ccc(N5CCN(CC6CCN(c7ccc(N8CCC(=O)NC8=O)cc7)CC6)C(=O)C5)cc4)cc23)ccc1[C@@H](C)NC(=O)c1nc(C(C)(C)C)no1 [Example 190, (R)-3-(tert-butyl)-N-(1-(4-(6-(4-(4-((1-(4-(2,4-dioxotetrahydropyrimidin-1(2H)-yl)phenyl)piperidin-4-yl)methyl)-3-oxopiperazin-1-yl)phenyl)-7H-pyrrolo[2,3-d]pyrimidin-4-yl)-2-methylphenyl)ethyl)-1,2,4-oxadiazole-5-carboxamide] | > 10 |
| 0.00159 | Cc1cc(-c2ncnc3[nH]c(-c4ccc(N5CCN([C@H]6C[C@@H](c7ccc(O[C@H]8CCC(=O)NC8=O)cc7)C6)CC5)nc4)cc23)ccc1[C@@H](C)NC(=O)c1nc(C(C)(C)C)no1 [Example 191, 3-(tert-butyl)-N-((R)-1-(4-(6-(6-(4-((1R,3s)-3-(4-(((S)-2,6-dioxopiperidin-3-yl)oxy)phenyl)cyclobutyl)piperazin-1-yl)pyridin-3-yl)-7H-pyrrolo[2,3-d]pyrimidin-4-yl)-2-methylphenyl)ethyl)-1,2,4-oxadiazole-5-carboxamide] | > 10 |
| > 2 | Cc1cc(-c2ncnc3[nH]c(-c4ccc(N5CCN([C@H]6C[C@@H](c7ccc(O[C@@H]8CCC(=O)NC8=O)cc7)C6)CC5)nc4)cc23)ccc1[C@@H](C)NC(=O)c1nc(C(C)(C)C)no1 [Example 192, 3-(tert-butyl)-N-((R)-1-(4-(6-(6-(4-((1S,3s)-3-(4-(((R)-2,6-dioxopiperidin-3-yl)oxy)phenyl)cyclobutyl)piperazin-1-yl)pyridin-3-yl)-7H-pyrrolo[2,3-d]pyrimidin-4-yl)-2-methylphenyl)ethyl)-1,2,4-oxadiazole-5-carboxamide] | > 10 |
